Assay results from patent US20220370453A1 (Storm Therapeutics Ltd, priority 2019, published 2022).

Assays:
BCDIN3D [1] = biological target: T1, BCDIN3D (Homo sapiens, UniProt Q7Z5W3); assay: BCDIN3D InCellPulse thermal stability assay in transfected A549 cells; format: cell-based; settings: transiently transfected A549 cells, heat shock 58° C. 15 min
T1 sequence (Q7Z5W3 1-292): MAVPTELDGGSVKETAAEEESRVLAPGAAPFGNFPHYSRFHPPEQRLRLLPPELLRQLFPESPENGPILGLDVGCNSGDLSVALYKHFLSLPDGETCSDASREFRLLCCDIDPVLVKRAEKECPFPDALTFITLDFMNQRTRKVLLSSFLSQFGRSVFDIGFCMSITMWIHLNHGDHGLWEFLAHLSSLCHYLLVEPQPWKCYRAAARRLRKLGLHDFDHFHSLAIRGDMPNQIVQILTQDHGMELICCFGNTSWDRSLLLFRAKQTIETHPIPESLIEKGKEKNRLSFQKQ
How it was run: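 Thermal stabilisation read-out: after a 15 min 58 °C heat shock, ePL-tagged BCDIN3D in transiently transfected A549 cells (1500/well) was quantified by enzyme-fragment complementation luminescence. Compounds were pre-incubated with cells 1 h at 37 °C, 0.6% DMSO final.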

BCDIN3D [2] = biological target: T1, BCDIN3D; assay: BCDIN3D IC50 RFMS (RapidFire) assay with mini-helix; format: biochemical; settings: mini-helix substrate 0.2 μM, SAM 6 μM, 25 nM enzyme
How it was run: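 SAH formation was measured by RapidFire mass spectrometry with D4- and 13C10-SAH internal standards after TCA quench. Substrates 6 μM SAM and 0.2 μM mini-helix reacted 1 h at 37 °C with 25 nM enzyme, which had been preincubated 10 min with compound (1% DMSO) in Tris pH 8.0 buffer with DTT, EDTA, BSA.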

| Compound | IC50 (BCDIN3D [1]) | IC50 (BCDIN3D [2]) |
| --- | --- | --- |
| Cn1ncc2c(Nc3ccc(OC(F)F)cc3)nc(NC[C@H](N)c3ccccc3)nc21 [Compound 4.16, N6-[(2R)-2-amino-2-phenyl-ethyl]-N4-[4-(difluoromethoxy)phenyl]-1-methyl-pyrazolo[3,4-d]pyrimidine-4,6-diamine] | 46.3 nM | 40.8 nM |
| Cc1nn(C)c2nc(NCC(N)c3ccccc3)nc(Nc3ccc(C(F)(F)F)cc3)c12 (stereo not shown) [Compound 4.18, 6-N-(2-amino-2-phenylethyl)-1,3-dimethyl-4-N-[4-(trifluoromethyl)phenyl]pyrazolo[3,4-d]pyrimidine-4,6-diamine] | 270 nM | 288 nM |
| Cn1ncc2c(Nc3ccc(C(F)(F)F)nc3)nc(NCC(N)c3ccccc3)nc21 (stereo not shown) [Compound 4.25, 6-N-(2-amino-2-phenylethyl)-1-methyl-4-N-[6-(trifluoromethyl)pyridin-3-yl]pyrazolo[3,4-d]pyrimidine-4,6-diamine] | 319 nM | 50.7 nM |
| Cn1ncc2c(Nc3ccc(OC(F)F)nc3)nc(NCC(N)c3ccccc3)nc21 (stereo not shown) [Compound 4.28, N6-(2-amino-2-phenyl-ethyl)-N4-[6-(difluoromethoxy)-3-pyridyl]-1-methyl-pyrazolo[3,4-d]pyrimidine-4,6-diamine] | 318 nM | 149 nM |
| Cn1ncc2c(Nc3ccc(OC(F)F)nc3)nc(NCC(C)(N)c3ccccc3)nc21 (stereo not shown) [Compound 4.29, N6-(2-amino-2-phenyl-propyl)-N4-[6-(difluoromethoxy)-3-pyridyl]-1-methyl-pyrazolo[3,4-d]pyrimidine-4,6-diamine] | 525 nM | 116 nM |
| Cn1ncc2c(Nc3ccc(Cl)cc3)nc(NC[C@H](N)c3ccccc3)nc21 [Compound 4.30, N6-[(2R)-2-amino-2-phenyl-ethyl]-N4-(4-chlorophenyl)-1-methyl-pyrazolo[3,4-d]pyrimidine-4,6-diamine] | 62.6 nM | 28.6 nM |
| Cn1ncc2c(Nc3ccc(Cl)cc3)nc(NC[C@@H](N)c3ccccc3)nc21 [Compound 4.31, N6-[(2S)-2-amino-2-phenyl-ethyl]-N4-(4-chlorophenyl)-1-methyl-pyrazolo[3,4-d]pyrimidine-4,6-diamine] | 60000 nM | 7390 nM |
| COc1ccc(Nc2nc(NC[C@H](N)c3ccccc3)nc3c2cnn3C)cc1 [Compound 4.32, N6-[(2R)-2-amino-2-phenyl-ethyl]-N4-(4-methoxyphenyl)-1-methyl-pyrazolo[3,4-d]pyrimidine-4,6-diamine] | 140 nM | 95.8 nM |
| CC(C)Oc1ccc(Nc2nc(NC[C@H](N)c3ccccc3)nc3c2cnn3C)cc1 [Compound 4.33, N6-[(2R)-2-amino-2-phenyl-ethyl]-N4-(4-isopropoxyphenyl)-1-methyl-pyrazolo[3,4-d]pyrimidine-4,6-diamine] | 38 nM | 64.4 nM |
| Cn1ncc2c(Nc3ccc(F)c(F)c3)nc(NC[C@H](N)c3ccccc3)nc21 [Compound 4.34, N6-[(2R)-2-amino-2-phenyl-ethyl]-N4-(3,4-difluorophenyl)-1-methyl-pyrazolo[3,4-d]pyrimidine-4,6-diamine] | 162 nM | 118 nM |
| CN(C)c1ccc(Nc2nc(NC[C@H](N)c3ccccc3)nc3c2cnn3C)cc1 [Compound 4.35, N6-[(2R)-2-amino-2-phenyl-ethyl]-N4-[4-(dimethylamino)phenyl]-1-methyl-pyrazolo[3,4-d]pyrimidine-4,6-diamine] | 141 nM | 143 nM |
| CNc1nc(NCC(N)c2ccccc2)nc2c1cnn2C (stereo not shown) [Compound 4.36, 6-N-(2-amino-2-phenylethyl)-4-N,1-dimethylpyrazolo[3,4-d]pyrimidine-4,6-diamine] | 1860 nM | 554 nM |
| [2H]C([2H])([2H])n1ncc2c(NC)nc(NCC(N)c3ccccc3)nc21 (stereo not shown) [Compound 4.38, 6-N-(2-amino-2-phenylethyl)-4-N-methyl-1-(trideuteriomethyl)pyrazolo[3,4-d]pyrimidine-4,6-diamine] | 9560 nM | 8100 nM |

The remaining lines, values ahead:

| IC50 (BCDIN3D [1]) | IC50 (BCDIN3D [2]) | Compound |
| --- | --- | --- |
| 295 nM | 69.4 nM | Cn1ncc2c(Nc3ccc(OC(F)F)cc3)nc(NCC(C)(N)c3ccccc3)nc21 (stereo not shown) [Compound 4.15, 6-N-(2-amino-2-phenylpropyl)-4-N-[4-(difluoromethoxy)phenyl]-1-methylpyrazolo[3,4-d]pyrimidine-4,6-diamine] |
| 178 nM | 50.1 nM | Cn1ncc2c(Nc3ccc(C(F)(F)F)cc3)nc(NCC(N)c3ccccc3)nc21 (stereo not shown) [Compound 4.17, 6-N-(2-amino-2-phenylethyl)-1-methyl-4-N-[4-(trifluoromethyl)phenyl]pyrazolo[3,4-d]pyrimidine-4,6-diamine] |
| 86.4 nM | 36.1 nM | Cn1ncc2c(Nc3ccc(C(F)(F)F)cc3)nc(NCC(C)(N)c3ccccc3)nc21 (stereo not shown) [Compound 4.19, N6-(2-amino-2-phenyl-propyl)-1-methyl-N4-[4-(trifluoromethyl)phenyl]pyrazolo[3,4-d]pyrimidine-4,6-diamine] |
| 60.4 nM | 38.5 nM | [2H]C([2H])([2H])n1ncc2c(Nc3ccc(C(F)(F)F)cc3)nc(NCC(N)c3ccccc3)nc21 (stereo not shown) [Compound 4.20, N6-(2-amino-2-phenyl-ethyl)-1-(trideuteriomethyl)-N4-[4-(trifluoromethyl)phenyl]pyrazolo[3,4-d]pyrimidine-4,6-diamine] |
| 218 nM | 42.8 nM | [2H]C([2H])([2H])n1ncc2c(Nc3ccc(C(F)(F)F)cc3)nc(NCC(C)(N)c3ccccc3)nc21 (stereo not shown) [Compound 4.21, N6-(2-amino-2-phenyl-propyl)-1-(trideuteriomethyl)-N4-[4-(trifluoromethyl)phenyl]pyrazolo[3,4-d]pyrimidine-4,6-diamine] |
| 29.9 nM | 34.1 nM | Cn1ncc2c(Nc3ccc(C(F)(F)F)cc3)nc(NC[C@H](N)c3ccccc3)nc21 [Compound 4.22, 6-N-[(2R)-2-amino-2-phenylethyl]-1-methyl-4-N-[4-(trifluoromethyl)phenyl]pyrazolo[3,4-d]pyrimidine-4,6-diamine] |
| 202 nM | 1520 nM | Cn1ncc2c(Nc3ccc(C(F)(F)F)cc3)nc(NC[C@@H](N)c3ccccc3)nc21 [Compound 4.23, 6-N-[(2S)-2-amino-2-phenylethyl]-1-methyl-4-N-[4-(trifluoromethyl)phenyl]pyrazolo[3,4-d]pyrimidine-4,6-diamine] |
| 14.4 nM | 13.9 nM | [2H]C([2H])([2H])n1ncc2c(Nc3ccc(C(F)(F)F)cc3)nc(NC[C@H](N)c3ccccc3)nc21 [Compound 4.24, N6-[(2R)-2-amino-2-phenyl-ethyl]-1-(trideuteriomethyl)-N4-[4-(trifluoromethyl)phenyl]pyrazolo[3,4-d]pyrimidine-4,6-diamine] |
| 384 nM | 21.7 nM | Cn1ncc2c(Nc3ccc(C(F)(F)F)nc3)nc(NCC(C)(N)c3ccccc3)nc21 (stereo not shown) [Compound 4.26, 6-N-(2-amino-2-phenylpropyl)-1-methyl-4-N-[6-(trifluoromethyl)pyridin-3-yl]pyrazolo[3,4-d]pyrimidine-4,6-diamine] |
| 610 nM | 46.6 nM | [2H]C([2H])([2H])n1ncc2c(Nc3ccc(C(F)(F)F)nc3)nc(NCC(C)(N)c3ccccc3)nc21 (stereo not shown) [Compound 4.27, N6-(2-amino-2-phenyl-propyl)-1-(trideuteriomethyl)-N4-[6-(trifluoromethyl)-3-pyridyl]pyrazolo[3,4-d]pyrimidine-4,6-diamine] |
